Reference: patent publication US6010478A, “Trans-mucosal particle delivery” (PowderJect Research Limited, priority 1995, dated 2000)
Where a name gives a salt, the structure may show the parent alone. Read-outs that look alike come from different tables or passages of the source.

What was measured:
[1] = tested on: oral mucosa; assay: Visual assessment of delivery sites for damage or irritation of mucosal tissues; type: in vivo, human; conditions: 3 mg particles 38-53 μm, needleless syringe, 24-48 hours after delivery, 14 subjects
Method: A randomized, double-blind, negatively controlled study was carried out in normal, healthy human subjects as follows. Initially, a single 3 mg dose of lignocaine HCL particles sized between 38 and 53 μm was delivered from a needleless syringe constructed in accordance with the invention. The lignocaine was delivered to the oral mucosa adjacent to the number 12 and 22 lateral incisors in 14 trial subjects. The delivery sites were then visually assessed for evidence of damage or irritation to the mucosal tissues.

[2] = tested on: oral mucosa; set-up: species or system human; conditions: in vivo
Method: In a second study, a single 3.0 mg dose of lignocaine HCL particles (as above) was delivered using a needleless syringe, and a single 0.2 mL dose of 2% lignocaine HCL was delivered via needle-syringe injection. Pain associated with the administration of each treatment was scored in all 14 subjects using a 100 mm visual analogue scale immediately after each treatment, wherein 100% indicates a painful treatment, and 0% indicates a pain-free treatment. The needleless syringe employed in the study was operated using 40 bar helium driving gas to expel anaesthetic particles from a flexible, eversible dome-shaped membrane comprised of a 400 μm, 6 mm polyurethane film.

[3] = tested on: oral mucosa; assay: Local anaesthesia: pain response to probing of treated oral mucosa, visual analogue scale; type: in vivo, human; conditions: 3.0 mg particles by needleless syringe
Method: A randomized, double-blind study was then carried out as follows. Treatments were given to 14 subjects over the course of three visits. The treatments provided to the subjects in each visit were either a single 3.0 mg dose of Lignocaine HCL particles from the above-described needleless syringe device, or 0.0 mg (as a blinded negative control). Accordingly, treatments provided over the course of the three visits were either: two actual (3.0 mg) doses of the anaesthetic particles and one placebo; or two placebos and one actual (3.0 mg) dose. Pain stimulus was provided by probing oral mucosa with the back of a 27G dental needle, wherein the probe sequence was a probe on an untreated area of the mucosa, and then a probe on the treated area of the mucosa 1 minute post delivery. Again, the pain associated with the probe of the untreated and treated areas was scored on visual analogue scales using the above scoring methods immediately after each probe.

[4] = Serum testosterone pharmacokinetics after transmucosal (OralJect needleless syringe) or subcutaneous delivery; type: in vivo, female New Zealand White rabbit; conditions: for Cmax: 2 mg
Method: Testosterone (Sigma Chemicals) was milled and sieved into a particle size range (approximately 50-100 μm) suitable for transmucosal delivery from a needleless syringe using standard stainless steel mesh sieves. Female New Zealand White rabbit subjects weighing between 2.2-2.8 kg were used and allowed food and water ad libitum. The rabbits (n=8) were randomly assigned to one of two treatment groups. The first treatment group received testosterone (2.0 mg dose) as a suspension in 35% polyvinylpyrrolidone C-30 in water (6 mg/g testosterone concentration) via subcutaneous injection. The second treatment group received testosterone (2.0 mg dose of testosterone particles ranging from 53-75 μm) as two 1.0 mg transmucosal administrations from an OralJect™ needleless syringe device abutted against the cheek mucosa.
Whole blood (1.0 ml) was taken at times 0, 0.5, 1, 2, 4, 6, 8, 12, 24 and 48 hours, the serum aspirated and assayed for testosterone by radioimmunoassay (DPC). The OralJect™ device is a prototype device of the present invention that is actuated by helium at 40 bar.

CCN(CC)CC(=O)Nc1c(C)cccc1C [lignocaine HCL, lignocaine hydrochloride]
tissue reaction at delivery site [1]: no evidence of any tissue reaction was observed | pain associated with administration (mean VAS score) [2]: 49.9% | level of local anaesthesia relative to placebo treatments ([3]; 1 minute post delivery): superior level of local anaesthesia relative to the placebo treatments | pain response score to probe of treated area (mean VAS) ([3]; probe 1 minute post delivery, untreated probe 55.6%, placebo 30.6%): 15.0%

C[C@]12CC[C@H]3[C@@H](CCC4=CC(=O)CC[C@@]43C)[C@@H]1CC[C@@H]2O [testosterone]
Cmax comparison between treatments ([4]; OralJect transmucosal vs subcutaneous, 2.0 mg, rabbit): not significantly different between treatments although there was a tendency for it to be lower following OralJect™ administration | pharmacokinetic profile, transmucosal vs subcutaneous ([4]; OralJect transmucosal vs subcutaneous, rabbit): markedly different from that achieved following subcutaneous administration | % BA (% bioavailability) ([4]; OralJect transmucosal, 2.0 mg, rabbit): ~48.3% | time of second minor peak of serum testosterone ([4]; OralJect transmucosal, post administration, possible depot effect): 12 h | Cmax ([4]; rabbit, serum, OralJect transmucosal (cheek mucosa), 2 x 1.0 mg particles 53-75 μm, helium 40 bar, rabbit, read-out: Cmax (mean maximum serum concentration)): 25.5 ± 3.5 nM | Cmax ([4]; rabbit, serum, sc, subcutaneous injection, 2.0 mg suspension in 35% polyvinylpyrrolidone C-30 in water, rabbit, read-out: Cmax (mean maximum serum concentration)): 34.8 ± 6.9 nM | Cmax ([4]; rabbit, serum, sc, subcutaneous injection, 2.0 mg, rabbit, read-out: Cmax range): 26.9 to 55.2 nM | Tmax ([4]; rabbit, serum, OralJect transmucosal, 2.0 mg, in all animals): 30 min
